Measurements reported in PubChem BioAssay (NCI).
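These data come from cells grown in 96-well plates and exposed to compound for 48 hours at five concentrations. Abbreviation: GI50, concentration required for 50% inhibition of growth. TGI denotes the concentration required for complete inhibition of growth.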

Tests used:
Assay in all cases: NCI tumour cell line growth inhibition, 48 h; in the data active = GI50 below about 0.43 µM; inactive = the rest
COLO 205 colon = system: COLO 205 colon
HOP-92 NSCLC = system: HOP-92 NSCLC
EKVX NSCLC = system: EKVX NSCLC
T-47D breast = system: T-47D breast
KM12 colon = system: KM12 colon
MALME-3M melanoma = system: MALME-3M melanoma
DU-145 prostate = system: DU-145 prostate
PC-3 prostate = system: PC-3 prostate
MOLT-4 leukemia = system: MOLT-4 leukemia
OVCAR-4 ovarian = system: OVCAR-4 ovarian
MCF7 breast = system: MCF7 breast
HS 578T breast = system: HS 578T breast
SF-268 CNS = system: SF-268 CNS
SK-MEL-5 melanoma = system: SK-MEL-5 melanoma
OVCAR-5 ovarian = system: OVCAR-5 ovarian
LOX IMVI melanoma = system: LOX IMVI melanoma
TK-10 renal = system: TK-10 renal
OVCAR-8 ovarian = system: OVCAR-8 ovarian
K-562 leukemia = system: K-562 leukemia
SW-620 colon = system: SW-620 colon
786-0 renal = system: 786-0 renal
MDA-MB-231 breast = system: MDA-MB-231 breast
RXF 393 renal = system: RXF 393 renal
CAKI-1 renal = system: CAKI-1 renal
HCT-116 colon = system: HCT-116 colon
SF-539 CNS = system: SF-539 CNS
HOP-62 NSCLC = system: HOP-62 NSCLC
NCI-H23 lung = system: NCI-H23 lung
NCI/ADR-RES ovarian = system: NCI/ADR-RES ovarian
SR leukemia = system: SR leukemia
UACC-257 melanoma = system: UACC-257 melanoma
A549 NSCLC = system: A549 NSCLC
SF-295 CNS = system: SF-295 CNS
MDA-MB-435 = system: MDA-MB-435
SK-OV-3 ovarian = system: SK-OV-3 ovarian
U251 CNS = system: U251 CNS
HL-60(TB) leukemia = system: HL-60(TB) leukemia
SK-MEL-2 melanoma = system: SK-MEL-2 melanoma
NCI-H226 lung = system: NCI-H226 lung
OVCAR-3 ovarian = system: OVCAR-3 ovarian
RPMI-8226 leukemia = system: RPMI-8226 leukemia
SK-MEL-28 melanoma = system: SK-MEL-28 melanoma
UACC-62 melanoma = system: UACC-62 melanoma
SN12C renal = system: SN12C renal
UO-31 renal = system: UO-31 renal
HT29 colon = system: HT29 colon
IGROV1 ovarian = system: IGROV1 ovarian
NCI-H522 lung = system: NCI-H522 lung
ACHN renal = system: ACHN renal
CCRF-CEM leukemia = system: CCRF-CEM leukemia
SNB-19 CNS = system: SNB-19 CNS
M14 melanoma = system: M14 melanoma
BT-549 breast = system: BT-549 breast
NCI-H460 lung = system: NCI-H460 lung
HCT-15 colon = system: HCT-15 colon
HCC-2998 colon = system: HCC-2998 colon

Cc1cc(C(=O)/C=C/c2ccc[nH]2)ccc1-n1ccc(C(F)(F)F)n1
65.6 µM: TGI (NCI-H522 lung)
3.12 µM: TGI (BT-549 breast)
inactive: GI50 (COLO 205 colon) 21.8 µM | GI50 (HOP-92 NSCLC) 11.4 µM | GI50 (EKVX NSCLC) 6.15 µM | GI50 (T-47D breast) 4.78 µM | GI50 (KM12 colon) 1.01 µM | GI50 (MALME-3M melanoma) 7.25 µM | GI50 (DU-145 prostate) 24.8 µM | GI50 (PC-3 prostate) 0.472 µM | GI50 (MOLT-4 leukemia) 3.66 µM | GI50 (OVCAR-4 ovarian) 3.18 µM | GI50 (MCF7 breast) 5.53 µM | GI50 (HS 578T breast) 11.1 µM | GI50 (SF-268 CNS) 3.37 µM | GI50 (SK-MEL-5 melanoma) 12.1 µM | GI50 (OVCAR-5 ovarian) > 100 µM | GI50 (LOX IMVI melanoma) 34.8 µM | GI50 (TK-10 renal) 27.5 µM | GI50 (OVCAR-8 ovarian) 6.27 µM | GI50 (K-562 leukemia) 3.43 µM | GI50 (SW-620 colon) 10.7 µM | GI50 (786-0 renal) 3.54 µM | GI50 (MDA-MB-231 breast) 27.6 µM | GI50 (RXF 393 renal) 1.8 µM | GI50 (CAKI-1 renal) 3.04 µM | GI50 (HCT-116 colon) 8.63 µM | GI50 (SF-539 CNS) 2.69 µM | GI50 (HOP-62 NSCLC) 34.8 µM | GI50 (NCI-H23 lung) 14.9 µM | GI50 (NCI/ADR-RES ovarian) 17.1 µM | GI50 (SR leukemia) 3.72 µM | GI50 (UACC-257 melanoma) 21.9 µM | GI50 (A549 NSCLC) 6.82 µM | GI50 (SF-295 CNS) 7.97 µM | GI50 (MDA-MB-435) 35.5 µM | GI50 (SK-OV-3 ovarian) 46.8 µM | GI50 (U251 CNS) 3.5 µM | GI50 (HL-60(TB) leukemia) 0.457 µM | GI50 (SK-MEL-2 melanoma) > 100 µM | GI50 (NCI-H226 lung) 30 µM | GI50 (OVCAR-3 ovarian) 2.29 µM | GI50 (RPMI-8226 leukemia) 0.592 µM | GI50 (SK-MEL-28 melanoma) 41.8 µM | GI50 (UACC-62 melanoma) 21.4 µM | GI50 (SN12C renal) 6.44 µM | GI50 (UO-31 renal) 1.4 µM | GI50 (HT29 colon) 14.4 µM | GI50 (IGROV1 ovarian) 2.02 µM | GI50 (NCI-H522 lung) 3.68 µM | GI50 (ACHN renal) 21.3 µM | GI50 (CCRF-CEM leukemia) 2.55 µM | GI50 (SNB-19 CNS) 21.4 µM | GI50 (M14 melanoma) 30.7 µM | GI50 (BT-549 breast) 1.36 µM | GI50 (NCI-H460 lung) 24.3 µM | GI50 (HCT-15 colon) 11.1 µM | GI50 (HCC-2998 colon) 20.1 µM
2.72 µM: TGI (UO-31 renal)
4.56 µM: TGI (IGROV1 ovarian)
4.45 µM: TGI (PC-3 prostate)
9.13 µM: TGI (SF-539 CNS)
54.7 µM: TGI (MALME-3M melanoma)
6.78 µM: TGI (OVCAR-3 ovarian)
4.74 µM: TGI (RXF 393 renal)
80.1 µM: TGI (SR leukemia)
> 100 µM: TGI (COLO 205 colon) | TGI (HOP-92 NSCLC) | TGI (EKVX NSCLC) | TGI (T-47D breast) | TGI (KM12 colon) | TGI (DU-145 prostate) | TGI (MOLT-4 leukemia) | TGI (OVCAR-4 ovarian) | TGI (MCF7 breast) | TGI (HS 578T breast) | TGI (SF-268 CNS) | TGI (OVCAR-5 ovarian) | TGI (LOX IMVI melanoma) | TGI (TK-10 renal) | TGI (OVCAR-8 ovarian) | TGI (K-562 leukemia) | TGI (SW-620 colon) | TGI (786-0 renal) | TGI (MDA-MB-231 breast) | TGI (HCT-116 colon) | TGI (HOP-62 NSCLC) | TGI (NCI-H23 lung) | TGI (NCI/ADR-RES ovarian) | TGI (UACC-257 melanoma) | TGI (A549 NSCLC) | TGI (SF-295 CNS) | TGI (MDA-MB-435) | TGI (SK-OV-3 ovarian) | TGI (U251 CNS) | TGI (HL-60(TB) leukemia) | TGI (SK-MEL-2 melanoma) | TGI (NCI-H226 lung) | TGI (SK-MEL-28 melanoma) | TGI (UACC-62 melanoma) | TGI (SN12C renal) | TGI (HT29 colon) | TGI (ACHN renal) | TGI (CCRF-CEM leukemia) | TGI (SNB-19 CNS) | TGI (M14 melanoma) | TGI (NCI-H460 lung) | TGI (HCT-15 colon) | TGI (HCC-2998 colon)
28.7 µM: TGI (CAKI-1 renal)
25.3 µM: TGI (SK-MEL-5 melanoma)
3.33 µM: TGI (RPMI-8226 leukemia)
